From ChEMBL document CHEMBL4385604, “Identification of Pyrrolo[2,3- d]pyrimidine-Based Derivatives as Potent and Orally Effective Fms-like Tyrosine Receptor Kinase 3 (FLT3) Inhibitors for Treating Acute Myelogenous Leukemia” (J Med Chem, 2019)

How the values were obtained:
MOLM-13 = assay: cells; conditions: Homo sapiens, MOLM-13, 72 h
Description: Antiproliferative activity against human MOLM13 cells harboring FLT3-ITD mutant measured after 72 hrs by MTT assay

BaF3 [1] = assay: cells; conditions: Mus musculus, BaF3, 72 h
Description: Antiproliferative activity against mouse BAF3 cells harboring FLT3-ITD mutant measured after 72 hrs by MTT assay

BaF3 [2] = assay: cells; conditions: Mus musculus, BaF3, 72 h; remark: listed apart in the source
Description: Antiproliferative activity against mouse BAF3 cells harboring FLT3-ITD-F691L mutant measured after 72 hrs by MTT assay

RS4-11 = assay: Antiproliferative activity against human RS4:11 cells harboring wild-type FLT3 measured after 72 hrs by MTT assay; assay type: functional, cell-based; conditions: RS4-11, 72 h
BaF3 [3] = assay: cells; conditions: Mus musculus, BaF3, 72 h; remark: listed apart in the source
Description: Antiproliferative activity against mouse BAF3 cells harboring FLT3-ITD-D835V mutant measured after 72 hrs by MTT assay

HL-60 = assay: Antiproliferative activity against human HL60 cells harboring wild-type FLT3 measured after 72 hrs by MTT assay; assay type: functional, cell-based; conditions: HL-60, 72 h
[4] = Plasma clearance in Sprague-Dawley rat at 5 mg/kg, po by LC-MS/MS analysis; assay type: ADME, organism-based
[5] = biological target: T1, Receptor-type tyrosine-protein kinase FLT3 (Homo sapiens, UniProt P36888)
T1 sequence (P36888 whole entry): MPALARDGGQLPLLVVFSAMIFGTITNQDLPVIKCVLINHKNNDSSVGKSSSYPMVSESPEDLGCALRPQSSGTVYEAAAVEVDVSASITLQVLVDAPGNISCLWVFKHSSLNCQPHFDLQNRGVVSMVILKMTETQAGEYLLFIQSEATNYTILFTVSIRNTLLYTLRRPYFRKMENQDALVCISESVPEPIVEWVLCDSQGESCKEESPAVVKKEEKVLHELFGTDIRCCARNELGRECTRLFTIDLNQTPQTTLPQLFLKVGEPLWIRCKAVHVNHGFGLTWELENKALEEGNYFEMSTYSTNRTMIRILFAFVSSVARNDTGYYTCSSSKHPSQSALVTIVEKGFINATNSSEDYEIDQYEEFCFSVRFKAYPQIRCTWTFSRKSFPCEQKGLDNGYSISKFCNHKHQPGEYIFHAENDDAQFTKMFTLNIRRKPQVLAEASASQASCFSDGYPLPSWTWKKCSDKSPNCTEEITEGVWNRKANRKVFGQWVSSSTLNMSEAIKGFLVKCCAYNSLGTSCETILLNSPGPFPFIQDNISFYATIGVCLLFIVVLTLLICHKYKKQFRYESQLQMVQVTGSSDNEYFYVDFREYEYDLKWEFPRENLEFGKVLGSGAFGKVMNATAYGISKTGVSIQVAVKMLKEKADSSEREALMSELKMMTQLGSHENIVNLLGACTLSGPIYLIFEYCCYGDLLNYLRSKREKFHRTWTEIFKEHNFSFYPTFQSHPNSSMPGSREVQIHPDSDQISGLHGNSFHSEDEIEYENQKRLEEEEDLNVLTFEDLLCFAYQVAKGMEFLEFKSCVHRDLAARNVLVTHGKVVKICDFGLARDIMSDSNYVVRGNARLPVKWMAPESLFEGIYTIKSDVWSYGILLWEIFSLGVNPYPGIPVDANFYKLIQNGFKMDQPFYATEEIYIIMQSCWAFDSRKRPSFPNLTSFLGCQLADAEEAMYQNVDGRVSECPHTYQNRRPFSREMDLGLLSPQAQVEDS

[6] = Oral bioavailability in Sprague-Dawley rat at 5 mg/kg by LC-MS/MS analysis; assay type: ADME, organism-based; conditions: in vivo
MV4-11 = assay: cells; conditions: Homo sapiens, MV4-11, 72 h
Description: Antiproliferative activity against human MV4-11 cells harboring FLT3-ITD mutant measured after 72 hrs by MTT assay

[7] = Elimination half-life in Sprague-Dawley rat at 5 mg/kg, po by LC-MS/MS analysis; assay type: ADME, organism-based; conditions: in vivo, read-out: beta t1/2 (converted)
[8] = Tmax in Sprague-Dawley rat at 5 mg/kg, po by LC-MS/MS analysis; assay type: ADME, organism-based; conditions: in vivo

SMILES	IC50 (MOLM-13) [nM]	IC50 (BaF3 [1]) [nM]	IC50 (BaF3 [2]) [nM]	IC50 (RS4-11) [nM]	IC50 (BaF3 [3]) [nM]	IC50 (HL-60) [nM]	CL/F [4] [mL/min/kg]	IC50 [5] [nM]	bioavailability [6] [%]	IC50 (MV4-11) [nM]	half-life [7] [h]	Tmax [8] [h]
C#CCn1cc(-c2ccc(NC(=O)Nc3cc(C(C)(C)C)on3)cc2)c2c(N)ncnc21	0.262	1.66	13.9	> 1000	21.1	> 1000	28.3	13	40	0.602	2.78	0.83
CC(C)(C)c1cc(NC(=O)Nc2ccc(-c3c[nH]c4ncnc(N)c34)cc2F)no1	0.007	0.25	10.7	> 1000	18	> 1000	56.3	4	25.6	0.131	2.54	0.88
CC(C)(C)c1cc(NC(=O)Nc2ccc(-c3cn(CCCCO)c4ncnc(N)c34)cc2)no1	0.14	1.73	13.6	> 1000	14.7	> 1000	801	16	9.8	0.876	2.77	0.31
CC(C)(C)c1cc(NC(=O)Nc2ccc(-c3cn(CC#N)c4ncnc(N)c34)cc2)no1	0.038	0.97	3.61	> 1000	9.17	> 1000	153	9	11.2	0.032	3.7	0.44
C=CCn1cc(-c2ccc(NC(=O)Nc3cc(C(C)(C)C)on3)c(F)c2)c2c(N)ncnc21	0.65	3.04	82.4	> 1000	51.9	> 1000		17		2.34		
CC(C)=CCn1cc(-c2ccc(NC(=O)Nc3cc(C(C)(C)C)on3)cc2)c2c(N)ncnc21	2.77	8.67	216	> 1000	305	> 1000		113		10.3		
C=CCCn1cc(-c2ccc(NC(=O)Nc3cc(C(C)(C)C)on3)cc2)c2c(N)ncnc21	1.06	4.92	91.8	> 1000	176	> 1000		38		1.75		
CCOCCn1cc(-c2ccc(NC(=O)Nc3cc(C(C)(C)C)on3)cc2)c2c(N)ncnc21	0.117	3.21	98.6	> 1000	173	> 1000		37		1.47		
CCN(CC)C(=O)n1cc(-c2ccc(NC(=O)Nc3cc(C(C)(C)C)on3)cc2)c2c(N)ncnc21	1.95	3.1	28.2	> 1000	28.5	> 1000		31		1.73		
CC(C)(C)c1cc(NC(=O)Nc2ccc(-c3cn(CCN4CCNCC4)c4ncnc(N)c34)cc2)no1	2.56	8.67	> 200	> 1000	156	> 1000		9		1.75		
CC(C)(C)c1cc(NC(=O)Nc2ccc(-c3cn(CCC#N)c4ncnc(N)c34)cc2F)no1	2.33	4.26	31.5	> 1000	112	> 1000		22		2.21		
C=CCCCCn1cc(-c2ccc(NC(=O)Nc3cc(C(C)(C)C)on3)cc2)c2c(N)ncnc21	2.85	6.06	228	> 1000	185	> 1000		70		1.79		
CC(C)(C)OC(=O)n1cc(-c2ccc(NC(=O)Nc3cc(C(C)(C)C)on3)cc2)c2c(N)ncnc21	0.081	1.28	8.92	> 1000	12.4	> 1000		25		0.107		
CC(C)n1cc(-c2ccc(NC(=O)Nc3cc(C(C)(C)C)on3)cc2)c2c(N)ncnc21	0.971	5.3	12.6	> 1000	12.2	> 1000	255	20	12.1	0.1	4.22	0.5
COCCn1cc(-c2ccc(NC(=O)Nc3cc(C(C)(C)C)on3)c(F)c2)c2c(N)ncnc21	0.58	5.57	39.4	> 1000	69.7	> 1000		32		1.98		
C=CCCCn1cc(-c2ccc(NC(=O)Nc3cc(C(C)(C)C)on3)cc2)c2c(N)ncnc21	2.22	5.95	200	> 1000	140	> 1000		69		2.94		
CCC#CCn1cc(-c2ccc(NC(=O)Nc3cc(C(C)(C)C)on3)cc2)c2c(N)ncnc21	2.05	8.65	148	> 1000	361	> 1000		64		5.84		
